By IC50 is commonly meant the point on the concentration scale where inhibition reaches its midpoint.

Counter-ions that a name gives are not always drawn. Like-named read-outs stand apart in the source and are kept apart here.

Among the data in patent US20100168102A9, “Amide Derivatives as Kinase Inhibitors” (Devgen NV, priority 2005, published 2010) are IC50 values, retold here.

The target in one assay is T1, human ROCKα/ROCKII mix (Homo sapiens, UniProt O75116).
T1 construct: purchased Upstate Biotechnology 14-451
The experiment in a line: Biochemical assay for ROCK (fluorescence polarization, ROCK IMAP Kit). (In general: Fluorescence polarisation rises when a labelled molecule tumbles more slowly, as on binding a larger partner.)

Another assay concerns the target T2, PKC epsilon (Homo sapiens, UniProt Q02156).
T2 construct: purchased Invitrogen P2282
T2 sequence (Q02156 1-737): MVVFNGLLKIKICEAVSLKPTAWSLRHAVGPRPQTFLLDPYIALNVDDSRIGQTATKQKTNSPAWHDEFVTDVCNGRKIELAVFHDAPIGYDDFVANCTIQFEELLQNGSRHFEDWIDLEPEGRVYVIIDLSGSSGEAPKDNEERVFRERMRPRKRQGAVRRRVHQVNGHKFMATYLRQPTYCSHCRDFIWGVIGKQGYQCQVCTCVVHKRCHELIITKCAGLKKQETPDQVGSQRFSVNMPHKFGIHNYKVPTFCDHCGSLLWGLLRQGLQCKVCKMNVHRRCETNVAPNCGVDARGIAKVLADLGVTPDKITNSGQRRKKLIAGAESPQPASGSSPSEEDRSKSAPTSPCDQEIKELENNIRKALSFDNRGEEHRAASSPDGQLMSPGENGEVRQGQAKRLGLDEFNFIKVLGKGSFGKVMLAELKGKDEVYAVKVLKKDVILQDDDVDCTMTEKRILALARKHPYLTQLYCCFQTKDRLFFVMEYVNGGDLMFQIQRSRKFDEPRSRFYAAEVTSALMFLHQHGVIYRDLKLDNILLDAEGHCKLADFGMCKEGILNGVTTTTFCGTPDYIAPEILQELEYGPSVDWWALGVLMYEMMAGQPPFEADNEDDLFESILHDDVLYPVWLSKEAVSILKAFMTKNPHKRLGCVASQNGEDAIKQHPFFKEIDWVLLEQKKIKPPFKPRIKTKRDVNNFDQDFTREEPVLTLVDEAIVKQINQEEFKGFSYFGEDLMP
Description: Biochemical assay for PKC epsilon (fluorescence polarization, Protein Kinase C Assay Kit, Red). The following applies: read-out: IC50 μM PKCε. The essentials:
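Read-out was fluorescence-polarization competition between phosphorylated substrate and a rhodamine PKC tracer for an anti-phosphoserine antibody, added with EDTA stop after an 80 min room-temperature kinase reaction with ATP and protein substrate (Mg2+/Ca2+ buffer). Enzyme (10 ng/ml final) was preincubated with compound for 30 min.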

[1] abbreviates: Table 2, compounds of Formula XIII.
[2] abbreviates: compounds of Formula XIV, Table 3.

T1 sequence (O75116 11-552 limits assumed): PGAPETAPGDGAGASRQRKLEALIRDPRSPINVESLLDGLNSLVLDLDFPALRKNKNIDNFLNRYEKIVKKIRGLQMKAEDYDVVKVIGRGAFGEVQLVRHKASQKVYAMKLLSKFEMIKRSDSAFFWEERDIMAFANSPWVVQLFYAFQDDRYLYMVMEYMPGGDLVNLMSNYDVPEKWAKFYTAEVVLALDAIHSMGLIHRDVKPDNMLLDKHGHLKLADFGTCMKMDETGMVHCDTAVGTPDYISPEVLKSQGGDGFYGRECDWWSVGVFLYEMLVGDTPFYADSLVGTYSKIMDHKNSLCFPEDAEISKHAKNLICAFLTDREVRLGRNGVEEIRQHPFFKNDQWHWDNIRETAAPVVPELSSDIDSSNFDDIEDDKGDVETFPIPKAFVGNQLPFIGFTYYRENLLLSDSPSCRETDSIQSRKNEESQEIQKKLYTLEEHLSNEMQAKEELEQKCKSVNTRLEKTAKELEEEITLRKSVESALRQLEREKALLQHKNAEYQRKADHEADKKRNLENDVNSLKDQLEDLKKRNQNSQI

As to `Cc1nc(-c2ccccc2)sc1C(=O)NCC(N)c1ccc(C(=O)Nc2ccncc2)cc1` (centres unmarked) [Compound 126, 4-Methyl-2-Phenyl-thiazole-5-carboxylic acid {2-amino-2-[4-(pyridin-4-ylcarbamoyl)-phenyl]-ethyl}-amide], the IC50 was 0.5 to 5 µM against human ROCKα/ROCKII mix (setting [1]) and 5 to 50 µM on PKC epsilon (setting [1]).
Consider `NC(c1ccc(C(=O)Nc2ccncc2)cc1)C1CCCN1C(=O)Cc1ccccc1` (centres unmarked) [Compound 521, 4-[Amino-(1-phenylacetyl-pyrrolidin-2-yl)-methyl]-N-pyridin-4-yl-benzamide], for which the IC50 against human ROCKα/ROCKII mix lay in the range of 0.05 to 0.5 µM; on PKC epsilon, 0.5 to 5 µM.
As to `NC(c1ccc(C(=O)Nc2ccncc2)cc1)C1CCCN1C(=O)Cc1ccc(Cl)cc1Cl` (centres unmarked) [Compound 591, 4-(Amino-{1-[2-(2,4-dichloro-phenyl)-acetyl]-pyrrolidin-2-yl}-methyl)-N-pyridin-4-yl-benzamide], the values for the 50% inhibitory concentration (IC50) at human ROCKα/ROCKII mix and at PKC epsilon were 0.5 to 5 µM and 5 to 50 µM, respectively.
With `COCC(=O)NCC(N)c1ccc(C(=O)Nc2ccncc2)cc1` (centres unmarked) [Compound 57, 4-[1-Amino-2-(2-methoxy-acetylamino)-ethyl]-N-pyridin-4-yl-benzamide], the IC50 is 0.5 to 5 µM against human ROCKα/ROCKII mix (setting [1]) and 5 to 50 µM on PKC epsilon (setting [1]).
With “4-(1-Amino-2-nonanoylamino-ethyl)- N-pyridin-4-yl-benzamide [Compound 38]”, the half-inhibitory concentration (IC50) fell in the range of 0.05 to 0.5 µM at human ROCKα/ROCKII mix (setting [1]) and 0.5 to 5 µM at PKC epsilon (setting [1]).
For the compound `NC(CNC(=S)Nc1cccc2ccccc12)c1ccc(C(=O)Nc2ccncc2)cc1` (centres unmarked) [Compound 17, 4-[1-amino-2-(3-naphtalen-1-yl-thioureido)-ethyl]-N-pyridin-4-yl-benzamide], the IC50 on human ROCKα/ROCKII mix and at PKC epsilon was 0.05 to 0.5 µM throughout.
Take `NC(CNC(=O)C1CC1)c1ccc(C(=O)Nc2ccncc2)cc1` (centres unmarked) [Compound 39, 4-[1-Amino-2-(cyclopropanecarbonyl-amino)-ethyl]-N-pyridin-4-yl-benzamide]: the IC50 on human ROCKα/ROCKII mix (setting [1]) and at PKC epsilon (setting [1]) was 0.5 to 5 µM each time.
Consider `COc1cccc(CCNC(=O)CC(N)c2ccc(C(=O)Nc3ccncc3)cc2)c1` (centres unmarked) [Compound 289, 4-{1-Amino-2-[2-(3-methoxy-phenyl)-ethylcarbamoyl]-ethyl}-N-pyridin-4-yl-benzamide], for which the IC50 against human ROCKα/ROCKII mix (setting [2]) is 0.05 to 0.5 µM; at PKC epsilon (setting [2]), 0.5 to 5 µM.
In the case of `CN(CC(N)c1ccc(C(=O)Nc2ccncc2)cc1)C(=O)C1CCOc2ccc(F)cc21` (centres unmarked) [Compound 516, 6-Fluoro-chroman-4-carboxylic acid {2-amino-2-[4-(pyridin-4-ylcarbamoyl)-phenyl]-ethyl}-methyl-amide], the IC50 was 0.5 to 5 µM against human ROCKα/ROCKII mix and 5 to 50 µM at PKC epsilon.
For the compound `CC(=O)NCC(N)c1ccc(C(=O)Nc2ccncc2)cc1` (centres unmarked) [Compound 31, 4-(2-Acetylamino-1-amino-ethyl)-N-pyridin-4-yl-benzamide], the values for the IC50 against human ROCKα/ROCKII mix (setting [1]) and on PKC epsilon (setting [1]) were 0.5 to 5 µM and 5 to 50 µM, respectively.
Regarding `NC(CC(=O)NCCc1c(Cl)cccc1Cl)c1ccc(C(=O)Nc2ccncc2)cc1` (centres unmarked) [Compound 302], the IC50 fell in the range of 0.05 to 0.5 µM against human ROCKα/ROCKII mix (setting [2]) and 0.5 to 5 µM on PKC epsilon (setting [2]).
For the compound `NC(CNC(=O)c1csc(Nc2ccc(F)cc2)n1)c1ccc(C(=O)Nc2ccncc2)cc1` (centres unmarked) [Compound 125, 2-(4-Fluoro-phenylamino)-thiazole-4-carboxylic acid {2-amino-2-[4-(pyridin-4-ylcarbamoyl)phenyl]-ethyl}-amide], the IC50 against human ROCKα/ROCKII mix (setting [1]) and on PKC epsilon (setting [1]) was 0.5 to 5 µM in each case.
For “4-(1-Amino-2-{[2-(5-bromo- pyridin-3-yl)-acetyl]-methyl- amino}-ethyl)- N-pyridin-4-yl-benzamide [Compound 442]”, the IC50 at human ROCKα/ROCKII mix is 0.5 to 5 µM; at PKC epsilon it was 5 to 50 µM.
As to “4-{1-Amino-2-[(pyridin-2- ylmethyl)-carbamoyl]-ethyl}- N-pyridin-4-yl-benzamide [Compound 277]”, the IC50 at human ROCKα/ROCKII mix (setting [2]) was in the range of 0.05 to 0.5 µM; at PKC epsilon (setting [2]), 0.5 to 5 µM.
As to `Cc1ccc(CNC(=O)CC(N)c2ccc(C(=O)Nc3ccncc3)cc2)cc1Cl` (centres unmarked) [Compound 249, 4-[1-Amino-2-(3-chloro-4-methyl-benzylcarbamoyl)-ethyl]-N-pyridin-4-yl-benzamide], the IC50 lay within 0.05 to 0.5 µM on human ROCKα/ROCKII mix (setting [2]) and 0.5 to 5 µM at PKC epsilon (setting [2]).
In the case of `COc1ccc(CC(=O)NCC(N)c2ccc(C(=O)Nc3ccncc3)cc2)cc1F` (centres unmarked) [Compound 327, 4-{1-Amino-2-[2-(3-fluoro-4-methoxy-phenyl)-acetylamino]-ethyl}-N-pyridin-4-yl-benzamide], the IC50 fell in the range of 0.05 to 0.5 µM against human ROCKα/ROCKII mix (setting [1]) and 0.5 to 5 µM on PKC epsilon (setting [1]).
`CCSCC(=O)NCC(N)c1ccc(C(=O)Nc2ccncc2)cc1` (centres unmarked) [Compound 63, 4-[1-amino-2-(2-ethylsulfanyl-acetylamino)-ethyl]-N-pyridin-4-yl-benzamide]: the half-inhibitory concentration (IC50) against human ROCKα/ROCKII mix (setting [1]) lay within 0.05 to 0.5 µM; at PKC epsilon (setting [1]), 0.5 to 5 µM.
`CN(CC(N)c1ccc(C(=O)Nc2ccncc2)cc1)C(=O)C1CCCc2ccccc21` (centres unmarked) [Compound 512, 1,2,3,4-Tetrahydro-naphthalene-1-carboxylic acid {2-amino-2-[4-(pyridin-4-ylcarbamoyl)-phenyl]-ethyl}-methyl-amide]: the IC50 was 0.5 to 5 µM on human ROCKα/ROCKII mix and 5 to 50 µM at PKC epsilon.
Consider `NC(CC(=O)NCCc1cccc(Cl)c1)c1ccc(C(=O)Nc2ccncc2)cc1` (centres unmarked) [Compound 298, 4-{1-Amino-2-[2-(3-chloro-phenyl)-ethylcarbamoyl]-ethyl}-N-pyridin-4-yl-benzamide], for which the values for the half-inhibitory concentration (IC50) against human ROCKα/ROCKII mix (setting [2]) and at PKC epsilon (setting [2]) were 0.05 to 0.5 µM and 0.5 to 5 µM, respectively.
Turning to `NC(CC(=O)NC1Cc2ccccc2C1)c1ccc(C(=O)Nc2ccncc2)cc1` (centres unmarked) [Compound 280, 4-[1-amino-2-(indan-2-ylcarbamoyl)-ethyl]-N-pyridin-4-yl-benzamide], the IC50 fell in the range of 0.05 to 0.5 µM against human ROCKα/ROCKII mix (setting [2]) and 0.5 to 5 µM at PKC epsilon (setting [2]).
Regarding `N[C@H](CNC(=O)C1(c2ccc(Cl)cc2)CC1)c1ccc(C(=O)Nc2ccncc2)cc1` [Compound 397, 4-((S)-1-Amino-2-{[1-(4-chloro-phenyl)-cyclopropanecarbonyl]-amino}-ethyl)-N-pyridin-4-yl-benzamide dihydrochloric acid salt], the IC50 on human ROCKα/ROCKII mix was 0.05 to 0.5 µM; at PKC epsilon, less than 0.05 µM.
Turning to `CN(CC(N)c1ccc(C(=O)Nc2ccncc2)cc1)C(=O)C(C)(C)c1ccc(F)c(F)c1` (centres unmarked) [Compound 485, 4-(1-Amino-2-{[2-(3,4-difluoro-phenyl)-2-methyl-propionyl]-methyl-amino}-ethyl)-N-pyridin-4-yl-benzamide], the 50% inhibitory concentration (IC50) on human ROCKα/ROCKII mix and at PKC epsilon was 0.5 to 5 µM throughout.
For the compound “4-{1-Amino-2-[methyl-(1- phenyl- cyclopropanecarbonyl)- amino]-ethyl}- N-pyridin-4-yl-benzamide [Compound 452]”, the IC50 against human ROCKα/ROCKII mix fell in the range of 0.5 to 5 µM; on PKC epsilon, 5 to 50 µM.
With `COc1cccc(OC)c1CNC(=O)CC(N)c1ccc(C(=O)Nc2ccncc2)cc1` (centres unmarked) [Compound 243, 4-[1-Amino-2-(2,6-dimethoxy-benzylcarbamoyl)-ethy]-N-pyridin-4-yl-benzamide], the IC50 against human ROCKα/ROCKII mix (setting [2]) was 0.05 to 0.5 µM; on PKC epsilon (setting [2]), 0.5 to 5 µM.
For the compound `NC(CNC(=O)Nc1ccc(-c2ccccc2)cc1)c1ccc(C(=O)Nc2ccncc2)cc1` (centres unmarked) [Compound 22, 4-[1-amino-2-(3-biphenyl-4-yl-ureido)-ethyl]-N-pyridin-4-yl-benzamide], the IC50 against human ROCKα/ROCKII mix and on PKC epsilon was 0.5 to 5 µM in each case.
